Read-outs that look alike come from different tables or passages of the source.
Columns and labels:
[1] = log P by HPLC on reversed-phase column (C18), EEC Directive 79/831 Annex V.A8; format: physicochemical
Description: ^a) Unless indicated otherwise, the following method was used to determine the log P values and masses: The determination of the given log P values was carried out in accordance with EEC Directive 79/831 Annex V.A8 by HPLC (High Performance Liquid Chromatography) on a reversed-phase column (C18). Agilent 1100 LC system; 50*4.6 Zorbax Eclipse Plus C18 1.8 micron; mobile phase A: acetonitrile (0.1% formic acid); mobile phase B: water (0.09% formic acid); linear gradient from 10% acetonitrile to 95% acetonitrile in 4.25 min, then 95% acetonitrile for a further 1.25 min; oven temperature 55° C.; flow rate: 2.0 ml/min. Mass detection is effected by means of an Agilend MSD system.

Spodoptera frugiperda = Spodoptera frugiperda spray test (SPODFR); format: in vivo; details: application rate 100 g/ha; maize leaf discs; after 7 days
Description: Spodoptera frugiperda—Spray Test (SPODFR)
Solvent: 78.0 parts by weight of acetone • • 1.5 parts by weight of dimethylformamide Emulsifier: alkylaryl polyglycol ether
(§1) To produce a suitable preparation of active compound, 1 part by weight of active compound is dissolved using the specified parts by weight of solvent and made up with water containing an emulsifier concentration of 1000 ppm until the desired concentration is attained. To produce further test concentrations, the preparation is diluted with emulsifier-containing water.
Leaf discs of maize (Zea mays) are sprayed with an active compound preparation of the desired concentration and, after drying, populated with caterpillars of the armyworm (Spodoptera frugiperda).
After 7 days, efficacy in % is determined. 100% means that all the caterpillars have been killed; 0% means that no caterpillars have been killed.

Phaedon cochleariae = Phaedon cochleariae spray test (PHAECO); format: in vivo; details: Chinese cabbage leaf discs, after 7 days
Description: Phaedon cochleariae—Spray Test (PHAECO) Solvent: 78.0 parts by weight of acetone • • 1.5 parts by weight of dimethylformamide Emulsifier: alkylaryl polyglycol ether
as §1
After 7 days, efficacy in % is determined. 100% means that all the beetle larvae have been killed; 0% means that no beetle larvae have been killed.

Ctenocephalides felis = Ctenocephalides felis oral test (CTECFE); format: in vivo; details: application rate 100 ppm in citrated cattle blood; after 2 days
Description: Ctenocephalides felis—Oral Test (CTECFE) Solvent: dimethyl sulphoxide
To produce a suitable preparation of active compound, 10 mg of active compound are mixed with 0.5 ml of dimethyl sulphoxide. Dilution with citrated cattle blood gives the desired concentration.
About 20 unfed adult cat fleas (Ctenocephalides felis) are placed into a chamber which is closed at the top and bottom with gauze. A metal cylinder whose bottom end is closed with parafilm is placed onto the chamber. The cylinder contains the blood/active compound preparation, which can be imbibed by the fleas through the parafilm membrane.
After 2 days, the kill in % is determined. 100% means that all of the fleas have been killed; 0% means that none of the fleas have been killed.

Musca domestica = Musca domestica test (MUSCDO); format: in vivo; details: application rate 100 ppm; adult houseflies; after 2 days
Description: Musca domestica-Test (MUSCDO) Solvent: dimethyl sulphoxide
(§2) To produce a suitable preparation of active compound, 10 mg of active compound are mixed with 0.5 ml of dimethyl sulphoxide, and the concentrate is diluted with water to the desired concentration.
Vessels containing a sponge treated with sugar solution and the active compound preparation of the desired concentration are populated with 10 adult houseflies (Musca domestica).
After 2 days, the kill in % is determined. 100% means that all of the flies have been killed; 0% means that none of the flies have been killed.

Lucilia cuprina = Lucilia cuprina test (LUCICU); format: in vivo; details: application rate 100 ppm; L1 larvae; after 2 days
Description: Lucilia cuprina-Test (LUCICU) Solvent: dimethyl sulphoxide
as §2
About 20 L1 larvae of the Australian sheep blowfly (Lucilia cuprina) are transferred into a test vessel containing minced horsemeat and the active compound preparation of the desired concentration.
After 2 days, the kill in % is determined. 100% means that all the larvae have been killed; 0% means that no larvae have been killed.

Boophilus microplus = Boophilus microplus injection test (BOOPMI Inj); format: in vivo; details: application rate 20 μg/animal; injection into abdomen
Description: Boophilus microplus—Injection Test (BOOPMI Inj) Solvent: dimethyl sulphoxide
To produce a suitable preparation of active compound, 10 mg of active compound are mixed with 0.5 ml of solvent and the concentrate is diluted with solvent to the desired concentration.
1 μl of the active compound solution is injected into the abdomen of 5 engorged adult female cattle ticks (Boophilus microplus). The animals are transferred into dishes and kept in a climate-controlled room.
The activity is assessed after the desired time by laying of fertile eggs. Eggs which are not visibly fertile are stored in a climate-controlled cabinet until the larvae hatch after about 42 days. An efficacy of 100% means that none of the ticks has laid any fertile eggs; 0% means that all the eggs are fertile.

Tetranychus urticae = Tetranychus urticae spray test, OP-resistant (TETRUR); format: in vivo; details: application rate 100 g/ha; bean leaf discs; after 6 days
Description: Tetranychus urticae—Spray Test, OP-Resistant (TETRUR) Solvent: 78.0 parts by weight of acetone • • 1.5 parts by weight of dimethylformamide Emulsifier: alkylaryl polyglycol ether
as §1
Discs of bean leaves (Phaseolus vulgaris) infested by all stages of the greenhouse red spider mite (Tetranychus urticae) are sprayed with an active ingredient formulation of the desired concentration.
After 6 days, efficacy in % is determined. 100% means that all the spider mites have been killed; 0% means that no spider mites have been killed.

[2] = reversed-phase C18 HPLC column, HPLC, C18, acetonitrile/water with formic acid gradient, read-out: log P

| Compound | chromatographic logP [1, 2] | also measured |
| --- | --- | --- |
| CC(=O)c1c(C(F)(F)F)c(C(F)(F)C(F)(F)F)nn1C [1-[1-methyl-3-(pentafluoroethyl)-4-(trifluoromethyl)-1H-pyrazol-5-yl]ethanone] | 3.61 |  |
| Cn1cc(C(F)(F)F)c(C(F)(F)C(F)(F)F)n1 [1-methyl-3-(1,1,2,2,2-pentafluoroethyl)-4-(trifluoromethyl)pyrazole] |  | chromatographic logP [1]: 3.23 |
| Cn1nc(C(F)(F)C(F)(F)F)c(C(F)(F)F)c1B1OC(C)(C)C(C)(C)O1 [1-methyl-3-(1,1,2,2,2-pentafluoroethyl)-5-(4,4,5,5-tetramethyl-1,3,2-dioxaborolan-2-yl)-4-(trifluoromethyl)pyrazole] | 5.05 |  |
| O=C(NC1CC1)c1cc(I)ccc1Cl [2-chloro-N-cyclopropyl-5-iodobenzamide] | 2.13 |  |
| Cn1nc(C(F)(F)C(F)(F)F)c(C(F)(F)F)c1-c1cc[nH]n1 [2′-methyl-5′-(pentafluoroethyl)-4′-(trifluoromethyl)-1H,2′H-3,3′-bipyrazole] | 3.03 |  |
| Cn1nc(C(F)(F)C(F)(F)F)c(C(F)(F)F)c1-c1c[nH]nn1 [4-[1-methyl-3-(pentafluoroethyl)-4-(trifluoromethyl)-1H-pyrazol-5-yl]-1H-1,2,3-triazole] | 2.78 |  |
| O=C(NC1CC1)c1cc(-n2cc(Br)cn2)ccc1Cl [5-(4-bromopyrazol-1-yl)-2-chloro-N-cyclopropylbenzamide] | 2.36 |  |
| Cn1nc(C(F)(F)C(F)(F)F)c(C(F)(F)F)c1-c1nn[nH]n1 [5-[1-methyl-3-(pentafluoroethyl)-4-(trifluoromethyl)-1H-pyrazol-5-yl]-2H-tetrazole] | 2.11 |  |
| [N-]=[N+]=Nc1ccc(Cl)c(C(=O)NC2CC2)c1 [5-azido-2-chloro-N-cyclopropylbenzamide] | 1.8 |  |
| C#Cc1c(C(F)(F)F)c(C(F)(F)C(F)(F)F)nn1C [5-ethynyl-1-methyl-3-(pentafluoroethyl)-4-(trifluoromethyl)-1H-pyrazole] | 3.74 |  |

The next lines start with results.

| chromatographic logP [1, 2] | Compound | also measured |
| --- | --- | --- |
| 2.77 | CN(C)/C=C/C(=O)c1c(C(F)(F)F)c(C(F)(F)C(F)(F)F)nn1C [(2E)-3-(dimethylamino)-1-[1-methyl-3-(pentafluoroethyl)-4-(trifluoromethyl)-1H-pyrazol-5-yl]prop-2-en-1-one] |  |
| 4.05 | Cn1nc(C(F)(F)C(F)(F)F)c(C(F)(F)F)c1-c1ccn(-c2ccc(Cl)c(C(=O)NC3CC3)c2)n1 [Id-1, 2-chloro-N-cyclopropyl-5-[2′-methyl-5′-(pentafluoroethyl)-4′-(trifluoromethyl)-1H,2′H-3,3′-bipyrazol-1-yl]benzamide] | efficacy (Spodoptera frugiperda): 100%; efficacy (Phaedon cochleariae; application rate 100 g/ha): 100% |
| 4.17 | Cn1nc(C(F)(F)C(F)(F)F)c(C(F)(F)F)c1-c1cnn(-c2ccc(Cl)c(C(=O)NC3CC3)c2)n1 [If-1, 2-chloro-N-cyclopropyl-5-{4-[1-methyl-3-(pentafluoroethyl)-4-(trifluoromethyl)-1H-pyrazol-5-yl]-2H-1,2,3-triazol-2-yl}benzamide] | efficacy (kill) (Ctenocephalides felis): 100%; efficacy (kill) (Musca domestica): 100%; efficacy (Spodoptera frugiperda): 100%; efficacy (kill) (Lucilia cuprina): 100%; efficacy (laying of fertile eggs) (Boophilus microplus): 100%; efficacy (Phaedon cochleariae; application rate 100 g/ha): 100%; efficacy (Tetranychus urticae): 100% |
| 4.06 | Cn1nc(C(F)(F)C(F)(F)F)c(C(F)(F)F)c1-c1nnn(-c2ccc(Cl)c(C(=O)NC3CC3)c2)n1 [Ih-1, 2-chloro-N-cyclopropyl-5-{5-[1-methyl-3-(pentafluoroethyl)-4-(trifluoromethyl)-1H-pyrazol-5-yl]-2H-tetrazol-2-yl}benzamide] | efficacy (Spodoptera frugiperda): 100%; efficacy (Phaedon cochleariae; application rate 20 g/ha): 100%; efficacy (Tetranychus urticae): 90% |
| 3.22 | CON(C)C(=O)c1c(C(F)(F)F)c(C(F)(F)C(F)(F)F)nn1C [N-methoxy-N,1-dimethyl-3-(pentafluoroethyl)-4-(trifluoromethyl)-1H-pyrazole-5-carboxamide] |  |
| 0.96 | O=C(NC1CC1)c1cc(B(O)O)ccc1Cl [[4-chloro-3-(cyclopropylcarbamoyl)phenyl]boronic acid] |  |

Reference: patent US20170114021A1, “HALOGEN-SUBSTITUTED COMPOUNDS” (priority 2014, published 2017)
